Test results: patent publication US20260335279A1, “METHODS OF TREATING ISCHEMIA-REPERFUSION INJURIES” (University of Cincinnati, priority 2022, published 2026)

Legend:
[1] = system: KLF5 promoter; settings: colorectal cancer cell lines; Bialkowska 2011; cited from earlier work
[2] = system: KLF5; settings: colorectal cancer cell lines; Bialkowska 2011; cited from earlier work
[3] = system: KLF5; settings: cited from earlier work
[4] = system: myocardial ischemia-reperfusion injury in mice; assay: Infarct size evaluation upon Evans Blue/TTC staining after myocardial I/R; format: in vivo, mouse (C57BL/6)
Method: (§1) The myocardial ischemia/reperfusion surgical protocol was applied as follows. Mice were anesthetized with 2% isoflurane inhalation until anesthesia was achieved. The animals' body temperature was maintained at 37 °C throughout the surgical procedure using a heating pad. A tracheal tube was placed via tracheal intubation and the respiration rate was set at 150 strokes/min with a tidal volume of 200 μL, using Minivent ventilator for mice (Model 845, Harvard Apparatus). A 1.2 cm incision was made over the left chest. After retraction of the pectoral major and minor muscles, the fourth intercostal space was exposed. […] The left anterior descending coronary artery (LAD) was then located, sutured, and ligated at a site 3-4 mm distal to the origin of the artery under the left atrium using a 6-0 silk suture. The heart was allowed to stabilize for 15 min and right after, ischemia was induced by tightening the suture against a small piece of polyethylene tube. At the end of the 30-minute ischemia period, the ligature was released for the induction of reperfusion, and then the manual evacuation of air and closure of muscle and skin were performed. The mouse was then monitored during the recovery period, which was generally completed within 3 to 5 minutes. Sustain-released buprenorphine (BupSR, 0.5 mg/kg body weight) was provided by subcutaneous injection. Mice were then left to recover until the end of the reperfusion (2 hours, 12 hours, 24 hours, or 4 weeks). The sham group underwent the same surgical procedure except that the LAD was not occluded.
Double staining of the heart with Evans Blue dye and Triphenyl-Tetrazolium Chloride (TTC) solution was employed for infarct size measurements. Mice were anesthetized upon 3% isoflurane inhalation. The thorax was cut and opened, and hearts were gently excised. Then, the aorta was cannulated and perfused with 5 mL of normal saline. The suture was re-tightened and Evans Blue solution (2.5% in WFI) was slowly infused through the aorta, to differentiate the ischemic part of the myocardium from the non-occluded, normally perfused area. The hearts were sliced into 1-2 mm sections immediately following. The heart slices were incubated with TTC solution (1% in PBS, pH=7.4) at 37 °C for 20 min. In this way, the necrotic area is delimited as a white area, while the viable tissue is stained red. […] The overall size of each slice (All/A), the area-at-risk (R), and the infarct area (I) were determined in a blinded manner for each slice using ImageJ software, and the percentages of Area at Risk (R/A) % and I/R % were calculated. […]
Administration of these two compounds was performed 5 minutes before the reopening of the coronary artery and infarct size was assessed upon 30 minutes of ischemia followed by 24 hours of reperfusion therapy.

[5] = system: reactive oxygen species in myocardium; assay: DHE staining of myocardium (superoxide detection, oxidative stress) after I/R; format: in vivo, mouse (C57BL/6); settings: 2 h reperfusion; apocynin 5 mg/kg/12 h or GLX351322 3.8 mg/kg/12 h, intraperitoneal, at early reperfusion
Method: as §1, with “Sustain-released buprenorphine (BupSR, 0.5 mg/kg body weight) was provided by subcutaneous injection. Mice were then left to recover until the end of the reperfusion (2 hours, 12 hours, 24 hours, or 4 weeks). The sham group underwent the same surgical procedure except that the LAD was not occluded.” left out
Live myocardium was isolated from mice at the time of euthanasia and stained with 20 μM dihydroethidium (DHE) for 30 min at room temperature. […] Individual nuclei were measured within each visual field using ImageJ software, and visual fields were averaged to measure mean fluorescence intensity for each mouse.
In order to unravel the mechanisms of KLF5-mediated cardiotoxicity, oxidative stress levels were evaluated at early reperfusion. […] Given the fact that inflammation and diapedesis of immune cells are important hallmarks of the post-ischemia-reperfusion response, the mRNA levels of IL-1α, IL-1β, IL-6, IL-10, and TNFα in the ischemic myocardium upon ML264 treatment were evaluated at 2 hours of reperfusion (FIGS. 51-5M) and 24 hours of reperfusion (FIGS. 5N-5Q). […]

[6] = system: NOX4; settings: cited from earlier work
[7] = apocynin 5 mg/kg/12 h or GLX351322 3.8 mg/kg/12 h, intraperitoneal, at early reperfusion, vs vehicle

## CC(C)(C)c1cc(C=C(C#N)C#N)cc(C(C)(C)C)c1O [AG17]
[1]
  KLF5 promoter activity: reduce
[2]
  KLF5 protein level: reduce

## CC(C)(C)c1cc(/C=C(\C#N)C(N)=S)cc(C(C)(C)C)c1O [AG879]
[3]
  inhibition of KLF5: inhibit

## COc1cc(C(C)=O)ccc1O [apocynin, acetovanillone]
[4]; [7]
  infarct size: significant reduction
[5]
  oxidative stress (DHE staining): significant suppression

## CC(C)(C)c1ccc(S(=O)(=O)NCc2ccc(C(=O)Nc3cccnc3)cc2)cc1 [STF-31]
[4]; GLUT inhibitors 5 min before reopening of coronary artery, 30 min ischemia, 24 h reperfusion
  infarct size: not by STF-31 treatment

## CCOC(=O)c1c(NC(=O)CN2CCN(C(=O)c3ccco3)CC2)sc2c1CCC2 [GLX-351322]
[4]; [7]
  infarct size: significant reduction
[5]
  oxidative stress (DHE staining): significant suppression
[6]
  hydrogen peroxide production from NOX4-overexpressing cells: inhibits
